Values of other authors, collected in patent US7749961B2, “Macrocyclic peptides active against the hepatitis C virus” (Boehringer Ingelheim International GmbH, priority 2004, dated 2010).

System: hepatitis C virus
Settings: two day clinical trial

COc1ccc2c(O[C@@H]3C[C@H]4C(=O)N[C@]5(C(=O)O)C[C@H]5/C=C\CCCCC[C@H](NC(=O)OC5CCCC5)C(=O)N4C3)cc(-c3csc(NC(C)C)n3)nc2c1 [BILN 2061]
reduction of viral loads in patients infected with the hepatitis C virus: effective in rapidly reducing viral loads
